# Laboratory results: patent publication US20110311484A1, “STRAINS OF […] LEUKEMIA-RELATED VIRUS AND METHODS FOR DETECTION THEREOF” (Whittemore Peterson Institute for Neuro-Immune Disease, priority 2010, published 2011)
# Tested on: XMRV
# Experiment: XMRV Env expression in PHA/IL-2 activated PBMC cultures, staining with SFFV env moAb
# Format: cell-based
# Details: PBMCs of XMRV-infected individuals, PHA/IL-2 activated for three days; inhibitor (50 nM AZT, FIG. 3) added prior to activation
# Method: XMRV RNA could not always be detected in the PBMCs of subjects from which infectious virus had been isolated from plasma. […] We have observed that culturing these PBMCs under conditions that induce activation of T cells increases the frequency of XMRV detected by RT-PCR in the cells maintained in culture. […] To biologically increase the level of XMRV and increase the probability that XMRV sequences could be detected by PCR, PBMCs were cultured under conditions that activated T cells for 7-10 days, the RNA isolated, and nested RT-PCR analysis performed as described above.
structure (smiles),measurement,value
"Cc1cn([C@H]2C[C@H](N=[N+]=[N-])[C@@H](CO)O2)c(=O)[nH]c1=O [reverse transcriptase inhibitor, zidovudine]","XMRV expression, as measured by cell surface expression of Env",prevents the increase XMRV expression
